Patent US10351548B2, “2-oxo-1,2-dihydropyridine-3-carboxamide compounds and their use as inhibitors of PDK1” (INTERNATIONAL SOCIETY FOR DRUG DEVELOPMENT S.R.L., priority 2015, dated 2019)
Like-named read-outs stand apart in the source and are kept apart here.

Tests used:
Format in all cases: biochemical
PIK3CG (p110 gamma) = PIK3CG (p110 gamma) (Homo sapiens (Human), UniProt P48736); test: IB35 kinases profiling at 100 nM (Adapta); details: IB35 100 nM, ATP Km app
Text: (§1) The results are reported below

PI4KB (PI4K beta) = PI4KB (PI4K beta) (Homo sapiens (Human), UniProt Q9UBF8); test: IB35 kinases profiling at 100 nM (Adapta); details: IB35 100 nM, ATP Km app
Chain of PI4KB (PI4K beta) (Q9UBF8 whole entry): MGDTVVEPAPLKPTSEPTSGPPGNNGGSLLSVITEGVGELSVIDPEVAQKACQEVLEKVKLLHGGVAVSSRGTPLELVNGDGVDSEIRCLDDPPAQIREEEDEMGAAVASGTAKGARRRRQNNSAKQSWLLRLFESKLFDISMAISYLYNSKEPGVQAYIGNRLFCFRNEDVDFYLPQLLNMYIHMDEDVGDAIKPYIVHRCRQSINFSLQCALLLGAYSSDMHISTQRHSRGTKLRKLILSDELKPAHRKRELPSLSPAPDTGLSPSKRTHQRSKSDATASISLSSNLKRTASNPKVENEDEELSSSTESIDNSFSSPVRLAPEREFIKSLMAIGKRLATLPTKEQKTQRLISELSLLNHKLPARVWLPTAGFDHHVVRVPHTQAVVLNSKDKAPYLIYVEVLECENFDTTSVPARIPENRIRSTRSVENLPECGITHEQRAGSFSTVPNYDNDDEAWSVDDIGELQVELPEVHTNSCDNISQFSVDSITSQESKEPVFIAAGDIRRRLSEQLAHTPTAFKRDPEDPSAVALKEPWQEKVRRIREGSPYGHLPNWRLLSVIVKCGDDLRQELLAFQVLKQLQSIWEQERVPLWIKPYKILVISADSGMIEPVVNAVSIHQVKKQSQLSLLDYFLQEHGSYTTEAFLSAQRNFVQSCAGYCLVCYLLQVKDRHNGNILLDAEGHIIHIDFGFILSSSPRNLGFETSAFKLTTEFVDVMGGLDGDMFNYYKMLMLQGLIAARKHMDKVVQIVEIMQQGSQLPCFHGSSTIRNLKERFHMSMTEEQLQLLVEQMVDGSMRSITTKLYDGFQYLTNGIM
Text: as §1

[1] = molecular target: PIK3CD/PIK3R1 (p110 delta/p85 alpha) (Homo sapiens (Human), UniProt O00329); test: IB35 kinases profiling at 100 nM (Adapta); details: IB35 100 nM, ATP Km app
Chain of PIK3CD/PIK3R1 (p110 delta/p85 alpha) (O00329 whole entry): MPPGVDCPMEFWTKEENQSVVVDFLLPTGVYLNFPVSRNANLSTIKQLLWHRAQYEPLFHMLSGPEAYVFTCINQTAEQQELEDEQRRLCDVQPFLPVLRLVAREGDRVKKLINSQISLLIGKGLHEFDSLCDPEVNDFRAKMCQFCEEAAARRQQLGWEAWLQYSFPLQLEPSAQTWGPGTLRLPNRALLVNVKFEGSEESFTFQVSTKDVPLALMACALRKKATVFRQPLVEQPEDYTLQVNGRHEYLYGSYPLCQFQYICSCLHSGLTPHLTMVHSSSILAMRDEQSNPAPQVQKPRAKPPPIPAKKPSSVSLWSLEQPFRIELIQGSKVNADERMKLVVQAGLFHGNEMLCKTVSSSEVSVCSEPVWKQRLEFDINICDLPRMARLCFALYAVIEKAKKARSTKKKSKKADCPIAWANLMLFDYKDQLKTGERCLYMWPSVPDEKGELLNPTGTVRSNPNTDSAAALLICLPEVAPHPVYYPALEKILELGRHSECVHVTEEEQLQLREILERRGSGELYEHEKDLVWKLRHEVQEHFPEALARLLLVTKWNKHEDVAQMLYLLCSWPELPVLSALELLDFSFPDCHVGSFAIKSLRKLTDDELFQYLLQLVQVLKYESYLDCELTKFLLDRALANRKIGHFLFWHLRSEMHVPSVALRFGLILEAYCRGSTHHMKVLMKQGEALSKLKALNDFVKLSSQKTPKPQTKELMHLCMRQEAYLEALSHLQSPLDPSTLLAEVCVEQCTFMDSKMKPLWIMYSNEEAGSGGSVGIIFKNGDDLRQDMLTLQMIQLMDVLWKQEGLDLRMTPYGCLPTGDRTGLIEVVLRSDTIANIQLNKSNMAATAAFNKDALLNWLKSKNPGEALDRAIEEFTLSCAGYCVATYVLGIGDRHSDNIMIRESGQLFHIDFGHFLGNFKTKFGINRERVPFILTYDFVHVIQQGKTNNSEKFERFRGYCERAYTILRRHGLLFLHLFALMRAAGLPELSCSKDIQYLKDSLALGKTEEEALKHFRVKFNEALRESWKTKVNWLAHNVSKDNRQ
Chain of PIK3CD/PIK3R1 (p110 delta/p85 alpha) (P27986 whole entry partner): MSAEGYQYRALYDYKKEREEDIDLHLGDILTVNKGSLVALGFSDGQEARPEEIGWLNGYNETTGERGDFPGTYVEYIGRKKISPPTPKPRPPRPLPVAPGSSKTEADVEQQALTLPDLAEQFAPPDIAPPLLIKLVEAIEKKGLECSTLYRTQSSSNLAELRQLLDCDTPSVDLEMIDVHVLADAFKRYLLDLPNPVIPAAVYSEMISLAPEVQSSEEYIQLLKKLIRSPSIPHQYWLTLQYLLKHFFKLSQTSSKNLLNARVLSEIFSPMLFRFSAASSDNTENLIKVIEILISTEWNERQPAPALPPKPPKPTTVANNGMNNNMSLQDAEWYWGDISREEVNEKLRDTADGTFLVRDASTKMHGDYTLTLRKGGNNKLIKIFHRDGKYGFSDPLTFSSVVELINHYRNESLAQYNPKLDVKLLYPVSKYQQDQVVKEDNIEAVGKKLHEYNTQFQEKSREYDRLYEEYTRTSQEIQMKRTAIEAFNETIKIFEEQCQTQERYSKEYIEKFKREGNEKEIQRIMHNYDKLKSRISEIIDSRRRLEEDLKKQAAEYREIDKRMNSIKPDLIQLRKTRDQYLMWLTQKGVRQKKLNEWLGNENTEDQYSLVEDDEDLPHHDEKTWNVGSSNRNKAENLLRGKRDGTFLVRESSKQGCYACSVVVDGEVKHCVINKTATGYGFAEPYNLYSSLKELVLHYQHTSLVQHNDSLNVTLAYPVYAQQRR
Text: as §1

CDK9/cyclin T1 = CDK9/cyclin T1 (Homo sapiens (Human), UniProt P50750); test: IB35 kinases profiling at 100 nM (Adapta); details: IB35 100 nM, ATP Km app
Text: as §1

CDK7/cyclin H/MNAT1 = CDK7/cyclin H/MNAT1 (Homo sapiens (Human), UniProt P50613); test: IB35 kinases profiling at 100 nM (Adapta); details: IB35 100 nM, ATP Km app
Text: as §1

CHUK (IKK alpha) = CHUK (IKK alpha) (Homo sapiens (Human), UniProt O15111); test: IB35 kinases profiling at 100 nM (Adapta); details: IB35 100 nM, ATP Km app
Text: as §1

[2] = molecular target: PIK3CA/PIK3R1 (p110 alpha/p85 alpha) (Homo sapiens (Human), UniProt P42336); test: IB35 kinases profiling at 100 nM (Adapta); details: IB35 100 nM, ATP Km app
Text: as §1

BTK = BTK (Homo sapiens (Human), UniProt Q06187); test: IB35 kinases profiling at 100 nM (ZLYTE); details: IB35 100 nM, ATP Km app
Text: as §1

MAPK1 (ERK2) = MAPK1 (ERK2) (Homo sapiens (Human), UniProt P28482); test: IB35 kinases profiling at 100 nM (ZLYTE); details: IB35 100 nM, ATP Km app
Text: as §1

CDK1/cyclin B = CDK1/cyclin B (Homo sapiens (Human), UniProt P06493); test: IB35 kinases profiling at 100 nM (ZLYTE); details: IB35 100 nM, ATP Km app
Text: as §1

MAPKAPK2 = MAPKAPK2 (Homo sapiens (Human), UniProt P49137); test: IB35 kinases profiling at 100 nM (ZLYTE); details: IB35 100 nM, ATP Km app
Text: as §1

CHEK2 (CHK2) = CHEK2 (CHK2) (Homo sapiens (Human), UniProt O96017); test: IB35 kinases profiling at 100 nM (ZLYTE); details: IB35 100 nM, ATP Km app
Text: as §1

CSNK2A2 (CK2 alpha 2) = CSNK2A2 (CK2 alpha 2) (Homo sapiens (Human), UniProt P19784); test: IB35 kinases profiling at 100 nM (ZLYTE); details: IB35 100 nM, ATP Km app
Text: as §1

MAPK8 (JNK1) = MAPK8 (JNK1) (Homo sapiens (Human), UniProt P45983); test: IB35 kinases profiling at 100 nM (ZLYTE); details: IB35 100 nM, ATP 100
Chain of MAPK8 (JNK1) (P45983 whole entry, species assumed): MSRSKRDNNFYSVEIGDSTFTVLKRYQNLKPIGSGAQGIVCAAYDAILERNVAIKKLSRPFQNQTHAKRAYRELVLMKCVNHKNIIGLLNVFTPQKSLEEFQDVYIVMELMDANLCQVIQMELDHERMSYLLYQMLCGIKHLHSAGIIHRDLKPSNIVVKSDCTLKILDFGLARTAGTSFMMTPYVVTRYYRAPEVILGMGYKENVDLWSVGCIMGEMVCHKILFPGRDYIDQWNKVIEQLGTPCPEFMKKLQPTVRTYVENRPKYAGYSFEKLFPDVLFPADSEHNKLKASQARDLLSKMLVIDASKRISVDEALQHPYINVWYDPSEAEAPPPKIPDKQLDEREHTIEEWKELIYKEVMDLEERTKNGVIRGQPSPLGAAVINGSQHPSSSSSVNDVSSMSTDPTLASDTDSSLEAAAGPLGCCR
Text: as §1

AKT2 (PKB beta) = AKT2 (PKB beta) (Homo sapiens (Human), UniProt P31751); test: IB35 kinases profiling at 100 nM (ZLYTE); details: IB35 100 nM, ATP Km app
Text: as §1

PAK6 = PAK6 (Homo sapiens (Human), UniProt Q9NQU5); test: IB35 kinases profiling at 100 nM (ZLYTE); details: IB35 100 nM, ATP Km app
Chain of PAK6 (Q9NQU5 whole entry, species assumed): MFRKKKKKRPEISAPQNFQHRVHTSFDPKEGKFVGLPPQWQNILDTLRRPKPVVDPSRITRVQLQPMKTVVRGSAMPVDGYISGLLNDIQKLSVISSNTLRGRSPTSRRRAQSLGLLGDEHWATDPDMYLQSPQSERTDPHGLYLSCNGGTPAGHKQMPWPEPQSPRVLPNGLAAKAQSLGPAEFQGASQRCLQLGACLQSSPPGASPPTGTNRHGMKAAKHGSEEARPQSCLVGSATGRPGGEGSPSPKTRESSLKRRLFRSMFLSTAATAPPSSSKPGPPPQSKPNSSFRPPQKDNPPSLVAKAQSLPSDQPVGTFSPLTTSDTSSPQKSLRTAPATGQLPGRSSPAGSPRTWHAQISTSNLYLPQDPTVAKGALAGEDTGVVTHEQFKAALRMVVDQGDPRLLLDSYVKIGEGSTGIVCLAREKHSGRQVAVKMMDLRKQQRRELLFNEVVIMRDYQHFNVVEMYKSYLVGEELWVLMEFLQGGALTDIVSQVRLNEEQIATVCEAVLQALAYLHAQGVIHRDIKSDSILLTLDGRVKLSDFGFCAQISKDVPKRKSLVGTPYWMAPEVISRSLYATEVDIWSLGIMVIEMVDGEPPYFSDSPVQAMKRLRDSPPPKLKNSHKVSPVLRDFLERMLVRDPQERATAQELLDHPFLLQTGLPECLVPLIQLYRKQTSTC
Text: as §1

AMPK A1/B1/G1 = AMPK A1/B1/G1 (Homo sapiens (Human), UniProt Q13131); test: IB35 kinases profiling at 100 nM (ZLYTE); details: IB35 100 nM, ATP Km app
Chain of AMPK A1/B1/G1 (Q13131 whole entry): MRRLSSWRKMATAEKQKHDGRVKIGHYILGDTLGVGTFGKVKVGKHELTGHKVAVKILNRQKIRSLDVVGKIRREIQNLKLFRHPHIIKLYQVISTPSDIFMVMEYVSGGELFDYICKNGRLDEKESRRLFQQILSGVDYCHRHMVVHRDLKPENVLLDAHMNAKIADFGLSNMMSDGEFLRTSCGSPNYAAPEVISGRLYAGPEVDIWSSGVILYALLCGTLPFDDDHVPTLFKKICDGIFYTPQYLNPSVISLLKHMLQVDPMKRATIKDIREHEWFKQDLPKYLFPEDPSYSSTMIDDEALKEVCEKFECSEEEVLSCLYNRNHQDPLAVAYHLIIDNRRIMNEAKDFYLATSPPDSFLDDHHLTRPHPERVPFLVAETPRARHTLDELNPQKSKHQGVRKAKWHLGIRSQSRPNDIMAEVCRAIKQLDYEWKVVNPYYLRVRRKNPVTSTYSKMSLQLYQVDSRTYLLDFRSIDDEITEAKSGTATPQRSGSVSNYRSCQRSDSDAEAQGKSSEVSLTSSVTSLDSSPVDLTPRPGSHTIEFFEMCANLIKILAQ
Chain of AMPK A1/B1/G1 (Q9Y478 whole entry partner): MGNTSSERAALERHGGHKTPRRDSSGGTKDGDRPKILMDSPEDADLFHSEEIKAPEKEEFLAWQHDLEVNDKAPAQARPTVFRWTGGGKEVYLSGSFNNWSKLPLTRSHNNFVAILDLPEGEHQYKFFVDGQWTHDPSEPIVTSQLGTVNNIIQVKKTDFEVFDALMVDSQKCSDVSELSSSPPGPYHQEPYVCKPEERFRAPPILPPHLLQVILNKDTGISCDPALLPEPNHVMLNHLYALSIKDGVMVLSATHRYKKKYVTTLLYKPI
Chain of AMPK A1/B1/G1 (P54619 whole entry partner): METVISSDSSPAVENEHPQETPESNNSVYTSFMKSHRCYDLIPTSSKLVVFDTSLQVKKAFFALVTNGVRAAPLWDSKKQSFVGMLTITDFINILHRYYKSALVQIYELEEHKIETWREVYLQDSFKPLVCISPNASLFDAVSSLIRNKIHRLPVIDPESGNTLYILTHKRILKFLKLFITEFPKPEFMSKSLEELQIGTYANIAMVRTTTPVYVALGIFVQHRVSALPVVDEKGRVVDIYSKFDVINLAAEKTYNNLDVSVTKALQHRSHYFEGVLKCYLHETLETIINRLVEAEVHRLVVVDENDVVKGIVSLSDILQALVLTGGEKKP
Text: as §1

RPS6KA1 (RSK1) = RPS6KA1 (RSK1) (Homo sapiens (Human), UniProt Q15418); test: IB35 kinases profiling at 100 nM (ZLYTE); details: IB35 100 nM, ATP Km app
Text: as §1

CAMK2A (CaMKII alpha) = CAMK2A (CaMKII alpha) (Homo sapiens (Human), UniProt Q9UQM7); test: IB35 kinases profiling at 100 nM (ZLYTE); details: IB35 100 nM, ATP Km app
Text: as §1

PRKCZ (PKC zeta) = PRKCZ (PKC zeta) (Homo sapiens (Human), UniProt Q05513); test: IB35 kinases profiling at 100 nM (ZLYTE); details: IB35 100 nM, ATP Km app
Text: as §1

CDC42 BPA (MRCKA) = CDC42 BPA (MRCKA) (Homo sapiens (Human), UniProt Q5VT25); test: IB35 kinases profiling at 100 nM (ZLYTE); details: IB35 100 nM, ATP Km app
Text: as §1

AURKA (Aurora A) = AURKA (Aurora A) (Homo sapiens (Human), UniProt O14965); test: IB35 kinases profiling at 100 nM (ZLYTE); details: IB35 100 nM, ATP Km app
Text: as §1

O=C(CNC(=O)c1cccn(Cc2ccc(F)c(F)c2)c1=O)Nc1ccc2c(c1)/C(=C/c1cnc[nH]1)C(=O)N2 [IB35, (Z)—N-(2-((3-((1H-imidazol-5-yl)methylene)-2-oxoindolin-5-yl)amino)-2-oxoethyl)-1-(3,4-difluorobenzyl)-2-oxo-1,2-dihydro pyridine-3-carboxamide]
inhibition at 0.1 µM (PIK3CG (p110 gamma); read-out: % Inhibition 1): 6% | inhibition at 0.1 µM (PIK3CG (p110 gamma); read-out: % Inhibition 2): -1% | inhibition at 0.1 µM (PIK3CG (p110 gamma); read-out: % Inhibition Avg): 2% | inhibition at 0.1 µM (PI4KB (PI4K beta); read-out: % Inhibition 1): -3% | inhibition at 0.1 µM (PI4KB (PI4K beta); read-out: % Inhibition 2): 12% | inhibition at 0.1 µM (PI4KB (PI4K beta); read-out: % Inhibition Avg): 4% | inhibition at 0.1 µM ([1]; read-out: % Inhibition 1): 13% | inhibition at 0.1 µM ([1]; read-out: % Inhibition 2): 21% | inhibition at 0.1 µM ([1]; read-out: % Inhibition Avg): 17% | inhibition at 0.1 µM (CDK9/cyclin T1; read-out: % Inhibition 1): 7% | inhibition at 0.1 µM (CDK9/cyclin T1; read-out: % Inhibition 2): 5% | inhibition at 0.1 µM (CDK9/cyclin T1; read-out: % Inhibition Avg): 6% | inhibition at 0.1 µM (CDK7/cyclin H/MNAT1; read-out: % Inhibition 1): 2% | inhibition at 0.1 µM (CDK7/cyclin H/MNAT1; read-out: % Inhibition 2): -1% | inhibition at 0.1 µM (CDK7/cyclin H/MNAT1; read-out: % Inhibition Avg): 1% | inhibition at 0.1 µM (CHUK (IKK alpha); read-out: % Inhibition 1): -2% | inhibition at 0.1 µM (CHUK (IKK alpha); read-out: % Inhibition 2): 7% | inhibition at 0.1 µM (CHUK (IKK alpha); read-out: % Inhibition Avg): 3% | inhibition at 0.1 µM ([2]; read-out: % Inhibition 1): 16% | inhibition at 0.1 µM ([2]; read-out: % Inhibition 2): 24% | inhibition at 0.1 µM ([2]; read-out: % Inhibition Avg): 20% | inhibition at 0.1 µM (BTK; read-out: % Inhibition 1): -4% | inhibition at 0.1 µM (BTK; read-out: % Inhibition 2): -2% | inhibition at 0.1 µM (BTK; read-out: % Inhibition Avg): -3% | inhibition at 0.1 µM (MAPK1 (ERK2); read-out: % Inhibition 1): 5% | inhibition at 0.1 µM (MAPK1 (ERK2); read-out: % Inhibition 2): 6% | inhibition at 0.1 µM (MAPK1 (ERK2); read-out: % Inhibition Avg): 6% | inhibition at 0.1 µM (CDK1/cyclin B; read-out: % Inhibition 1): 10% | inhibition at 0.1 µM (CDK1/cyclin B; read-out: % Inhibition 2): 3% | inhibition at 0.1 µM (CDK1/cyclin B; read-out: % Inhibition Avg): 6% | inhibition at 0.1 µM (MAPKAPK2; read-out: % Inhibition 1): -2% | inhibition at 0.1 µM (MAPKAPK2; read-out: % Inhibition 2): 2% | inhibition at 0.1 µM (MAPKAPK2; read-out: % Inhibition Avg): 0% | inhibition at 0.1 µM (CHEK2 (CHK2); read-out: % Inhibition 1): 1% | inhibition at 0.1 µM (CHEK2 (CHK2); read-out: % Inhibition 2): 8% | inhibition at 0.1 µM (CHEK2 (CHK2); read-out: % Inhibition Avg): 4% | inhibition at 0.1 µM (CSNK2A2 (CK2 alpha 2); read-out: % Inhibition 1): 4% | inhibition at 0.1 µM (CSNK2A2 (CK2 alpha 2); read-out: % Inhibition 2): 3% | inhibition at 0.1 µM (CSNK2A2 (CK2 alpha 2); read-out: % Inhibition Avg): 3% | inhibition at 0.1 µM (MAPK8 (JNK1); read-out: % Inhibition 1): 4% | inhibition at 0.1 µM (MAPK8 (JNK1); read-out: % Inhibition 2): 21% | inhibition at 0.1 µM (MAPK8 (JNK1); read-out: % Inhibition Avg): 12% | inhibition at 0.1 µM (AKT2 (PKB beta); read-out: % Inhibition 1): 0% | inhibition at 0.1 µM (AKT2 (PKB beta); read-out: % Inhibition 2): -9% | inhibition at 0.1 µM (AKT2 (PKB beta); read-out: % Inhibition Avg): -4% | inhibition at 0.1 µM (PAK6; read-out: % Inhibition 1): 1% | inhibition at 0.1 µM (PAK6; read-out: % Inhibition 2): -9% | inhibition at 0.1 µM (PAK6; read-out: % Inhibition Avg): -4% | inhibition at 0.1 µM (AMPK A1/B1/G1; read-out: % Inhibition 1): 8% | inhibition at 0.1 µM (AMPK A1/B1/G1; read-out: % Inhibition 2): 7% | inhibition at 0.1 µM (AMPK A1/B1/G1; read-out: % Inhibition Avg): 7% | inhibition at 0.1 µM (RPS6KA1 (RSK1); read-out: % Inhibition 1): -3% | inhibition at 0.1 µM (RPS6KA1 (RSK1); read-out: % Inhibition 2): 7% | inhibition at 0.1 µM (RPS6KA1 (RSK1); read-out: % Inhibition Avg): 2% | inhibition at 0.1 µM (CAMK2A (CaMKII alpha); read-out: % Inhibition 1): -1% | inhibition at 0.1 µM (CAMK2A (CaMKII alpha); read-out: % Inhibition 2): 2% | inhibition at 0.1 µM (CAMK2A (CaMKII alpha); read-out: % Inhibition Avg): 0% | inhibition at 0.1 µM (PRKCZ (PKC zeta); read-out: % Inhibition 1): -3% | inhibition at 0.1 µM (PRKCZ (PKC zeta); read-out: % Inhibition 2): -2% | inhibition at 0.1 µM (PRKCZ (PKC zeta); read-out: % Inhibition Avg): -3% | inhibition at 0.1 µM (CDC42 BPA (MRCKA); read-out: % Inhibition 1): -1% | inhibition at 0.1 µM (CDC42 BPA (MRCKA); read-out: % Inhibition 2): -6% | inhibition at 0.1 µM (CDC42 BPA (MRCKA); read-out: % Inhibition Avg): -3% | inhibition at 0.1 µM (AURKA (Aurora A); read-out: % Inhibition 1): 37% | inhibition at 0.1 µM (AURKA (Aurora A); read-out: % Inhibition 2): 38% | inhibition at 0.1 µM (AURKA (Aurora A); read-out: % Inhibition Avg): 38%
